Experimental data reported in PubChem BioAssay (NCI).
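Compound exposure: 48 hours, 5 concentrations, 96-well plates. At the GI50, growth is halved. TGI: concentration producing complete growth inhibition.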

Legend:
Assay in all cases: NCI-60 cell line screen, 48 h
[1] = tested on: 786-0 renal
[2] = tested on: HCT-116 colon
[3] = tested on: NCI-H460 lung
[4] = tested on: OVCAR-5 ovarian
[5] = tested on: RPMI-8226 leukemia
[6] = tested on: SF-268 CNS
[7] = tested on: SF-539 CNS
[8] = tested on: SR leukemia
[9] = tested on: SW-620 colon
[10] = tested on: UO-31 renal

| SMILES | GI50 [1] | TGI [1] | GI50 [2] | TGI [2] | GI50 [3] | TGI [3] | GI50 [4] | TGI [4] | GI50 [5] | TGI [5] | GI50 [6] | TGI [6] | GI50 [7] | TGI [7] | GI50 [8] | TGI [8] | GI50 [9] | TGI [9] | GI50 [10] | TGI [10] |
| --- | --- | --- | --- | --- | --- | --- | --- | --- | --- | --- | --- | --- | --- | --- | --- | --- | --- | --- | --- | --- |
| CCCCCCCCCCCCOC1C(C(CC(=O)N2CCN(Cc3ccc4c(c3)OCO4)CC2)NS(=O)(=O)c2cc(Cl)cc(Cl)c2)OC2OC(C)(C)OC21 (stereo not given) | 20.4 µM | > 86.5 µM | 6.69 µM | 36.7 µM | 5.44 µM | 35 µM | 6.49 µM | > 100 µM | 3.79 µM | > 47.5 µM | 12.3 µM | > 91.5 µM | 43 µM | > 100 µM | 3.85 µM | 47.4 µM | 16.4 µM | > 100 µM | 32.9 µM | > 100 µM |
| Cn1ccnc1C(=O)/C=C/c1ccc(C(=O)Nc2c(F)c(F)c(F)c(F)c2F)cc1 | 1.83 µM | 3.62 µM | 1.17 µM | 2.48 µM | 1.78 µM | 5.11 µM | 1.82 µM | 3.9 µM | 0.505 µM | 2.54 µM | 1.81 µM | 4.42 µM | 1.67 µM | 3.13 µM | 0.339 µM | 2.26 µM | 1.19 µM | 2.86 µM | 1.47 µM | 2.79 µM |
| Cc1ccc(C2=C(Cl)C(=O)C(c3ccc(C)cc3)=C(Cl)C2=O)cc1 | – | > 100 µM | – | > 100 µM | – | > 100 µM | – | > 100 µM | – | > 100 µM | – | > 100 µM | – | > 100 µM | – | > 100 µM | – | > 100 µM | – | > 100 µM |
| COc1cc(/C=C\c2cc(OC)c(OC)c(OC)c2)cc(NS(=O)(=O)c2ccc(Cl)cc2)c1OC | 0.666 µM | > 100 µM | 0.469 µM | > 100 µM | 0.364 µM | 51.4 µM | 0.726 µM | > 100 µM | 0.387 µM | 33.2 µM | 1.1 µM | > 100 µM | 0.303 µM | 2.58 µM | 0.406 µM | 10.5 µM | 0.343 µM | > 100 µM | 0.696 µM | > 100 µM |
| COc1cccc(C2C(C#N)=C(N)Oc3cc4c(cc32)OCO4)c1 (stereo not given) | 0.0621 µM | 24.1 µM | 0.0459 µM | 11 µM | 0.0438 µM | 12.2 µM | 0.661 µM | > 100 µM | 0.0828 µM | 29.9 µM | 0.317 µM | > 37.8 µM | 0.0401 µM | > 33.1 µM | 0.0291 µM | 27.8 µM | 0.0369 µM | > 63.2 µM | 0.169 µM | > 100 µM |
| COc1ccc(/C(C)=C(\c2ccc(Cl)cc2)c2ccc(OCCN3CCCCCC3)cc2)cc1F | 2.56 µM | 5.11 µM | 1.98 µM | 4.51 µM | 2.56 µM | 5.4 µM | 2.95 µM | 8.18 µM | 3.63 µM | 9.92 µM | 6.42 µM | > 16.7 µM | 2.18 µM | 4.39 µM | 2.26 µM | 12.3 µM | 2.14 µM | 4.81 µM | 2.17 µM | 4.47 µM |
| COc1cc(OC)cc(-c2ccc(-c3ccc(C(=N)N)cn3)s2)c1 | 1.98 µM | 3.72 µM | 1.9 µM | 3.64 µM | 1.87 µM | 3.45 µM | 1.69 µM | 3.13 µM | 2.46 µM | 5.51 µM | 1.73 µM | 3.35 µM | 1.71 µM | 3.13 µM | 3.51 µM | 10.9 µM | 1.91 µM | 3.8 µM | 1.65 µM | 3.31 µM |
| CC1=C(CNO)C2=C(C)C3(CC3)[C@@](C)(O)C(=O)C2=C1 | 2.53 µM | 6.88 µM | 1.85 µM | 5.21 µM | 0.358 µM | 3.87 µM | 1.4 µM | 17.4 µM | 21.1 µM | 72.9 µM | 0.766 µM | 9.89 µM | 1.64 µM | 5.03 µM | 4.49 µM | > 100 µM | 4.54 µM | > 100 µM | 1.83 µM | 5.87 µM |
| O=C(N/N=C/c1ccc(F)cc1)c1ccc(C(F)(F)F)nc1Nc1cccc(C(F)(F)F)c1 | 0.691 µM | 4.62 µM | 0.65 µM | 2.79 µM | 1.29 µM | 3.08 µM | 1.34 µM | 9.12 µM | 1.07 µM | 3.34 µM | 0.465 µM | 2.34 µM | 1.82 µM | 4.87 µM | 0.426 µM | 2.4 µM | 0.959 µM | 8.44 µM | 2.14 µM | 6.69 µM |
| OCC(O)C(O)C(O)C(O)c1nn[nH]n1 (stereo not given) | – | > 100 µM | – | > 100 µM | – | > 100 µM | – | > 100 µM | – | > 100 µM | – | > 100 µM | – | > 100 µM | – | > 100 µM | – | > 100 µM | – | > 100 µM |
| NC(N)=N/N=C(/c1ccccc1)c1ccccc1F | 4.58 µM | 21 µM | 2.37 µM | 12.3 µM | 2.31 µM | 10.4 µM | 7.49 µM | 33.8 µM | 7.6 µM | > 82.1 µM | 5.48 µM | 26.9 µM | 0.8 µM | 4.59 µM | 0.809 µM | > 100 µM | 2.75 µM | 21.1 µM | 4.48 µM | 31.6 µM |
| CCOc1ccc(Nc2nc(-c3c(C)nc4ncccn34)cs2)cc1 | 0.0392 µM | 18.4 µM | 0.0221 µM | 11.6 µM | 0.0305 µM | 12.5 µM | 0.0362 µM | 19 µM | 0.0366 µM | 14.5 µM | 1.53 µM | 19.5 µM | 0.0227 µM | 0.0822 µM | 0.0153 µM | 19.7 µM | 0.0218 µM | 16 µM | 0.0537 µM | 18.6 µM |
